The values below come from patent US10959430B2, “Compositions and methods for repelling coleopterans” (ISCA TECHNOLOGIES, INC., priority 2015, dated 2021).

Experiment [1] concerns CBB (coffee berry borer, Hypothenemus hampei). Put plainly: Dislodging of CBB from coffee berries in a sealed petri dish. Format: in vivo. Particulars: both male and female CBBs. From the text:
Our testing involved application of approximately 0.2 g of SPLAT Verb in approximately a 6-inch petri dish. (SPLAT Verb is loaded with 10% verbenone by weight.) This area would correspond to 0.0000045ac of land; therefore, our field application rate would be approximately 44 kg of SPLAT Verb (4,400 g of verbenone) per acre. Coffee berries, commonly used to rear CBB, were placed in the petri dish. The 0.2 g of SPLAT Verb was introduced into the sealed petri dish. We then went on to measure the times when CBB dislodged or exited the berry. The number dislodged is a summation of the total dislodged at that point in time. Our data (as shown in Table 3) verifies that CBB exited their preferred host and, after dislodging, maintained high activity levels without re-entering the berries.

In a further experiment the test system is CBB. To be noted: dosage and verbenone type not given in the study; cited from earlier work.

On to `CC1=CC(=O)[C@H]2C[C@@H]1C2(C)C` [(1S)-(−)-Verbenone], for which the “effect of exposure on male and female CBBs in the coffee berry” value in experiment [1] was “dislodge from the coffee berry”.

As for `CC1=CC(=O)[C@@H]2C[C@H]1C2(C)C` [verbenone], the “response of CBB to path containing verbenone” value in the experiment on CBB is “unattractive”.
